Source: patent publication US20150196544A1, “NOVEL BENZO[d][1,3]-DIOXOL DERIVATIVES” (priority 2005, published 2015)

Experiments:
[1] = system: pooled human liver microsomes; assay: Human liver microsome metabolic stability assay; assay type: in vitro ADME; conditions: for % Remaining 30 min / % Remaining 60 min / % Remaining 120 min: pooled human liver microsomes 1.0 mg/mL, 1 μM test compound, 37° C.
Protocol: The objectives of the present study were to determine the metabolic stability of the test compounds in pooled liver microsomal incubations and to perform full scan LC-MS analysis for the detection of major metabolites. Samples of the test compounds, exposed to pooled human liver microsomes, were analyzed using HPLC-MS (or MS/MS) detection. For determining metabolic stability, multiple reaction monitoring (MRM) was used to measure the disappearance of the test compounds. For metabolite detection, Q1 full scans were used as survey scans to detect the major metabolites.
Human liver microsomes were obtained from Absorption Systems L.P. (Exton, Pa.). The incubation mixture was prepared as follows:
The reaction mixture, minus cofactors, was prepared. An aliquot of the reaction mixture (without cofactors) was incubated in a shaking water bath at 37° C. for 3 minutes. Another aliquot of the reaction mixture was prepared as the negative control. The test compound was added into both the reaction mixture and the negative control at a final concentration of 1 μM. An aliquot of the reaction mixture was prepared as a blank control, by the addition of plain organic solvent (not the test compound). The reaction was initiated by the addition of cofactors (not into the negative controls), and then incubated in a shaking water bath at 37° C. Aliquots (200 μL) were withdrawn in triplicate at 0, 15, 30, 60, and 120 minutes and combined with 800 μL of ice-cold 50/50 acetonitrile/deionized water to terminate the reaction. The positive controls, testosterone and propranolol, were run simultaneously with the test compounds in separate reactions. All samples were analyzed using LC-MS (or MS/MS). An LC-MRM-MS/MS method was used for metabolic stability. Also, Q1 full scan LC-MS methods were performed on the blank matrix and the test compound incubation samples. The Q1 scans served as survey scans to identify any sample unique peaks that might represent the possible metabolites. The masses of these potential metabolites can be determined from the Q1 scans.
The test compounds were evaluated in the human liver microsome assay described above along with paroxetine as a control. The columns of Table 2 labelled “% remaining” refer to the percentage of each test compound remaining after 30, 60 and 120 minute intervals in the human microsomal assay.

[2] = cited from earlier work
[3] = 30 mg oral solution, radiolabeled, healthy volunteers, cited from earlier work
CYP2D6 [4] = biological target: T1, CYP2D6 (Homo sapiens, UniProt P10635); conditions: mechanism-based; cited from earlier work
T1 sequence (P10635 whole entry): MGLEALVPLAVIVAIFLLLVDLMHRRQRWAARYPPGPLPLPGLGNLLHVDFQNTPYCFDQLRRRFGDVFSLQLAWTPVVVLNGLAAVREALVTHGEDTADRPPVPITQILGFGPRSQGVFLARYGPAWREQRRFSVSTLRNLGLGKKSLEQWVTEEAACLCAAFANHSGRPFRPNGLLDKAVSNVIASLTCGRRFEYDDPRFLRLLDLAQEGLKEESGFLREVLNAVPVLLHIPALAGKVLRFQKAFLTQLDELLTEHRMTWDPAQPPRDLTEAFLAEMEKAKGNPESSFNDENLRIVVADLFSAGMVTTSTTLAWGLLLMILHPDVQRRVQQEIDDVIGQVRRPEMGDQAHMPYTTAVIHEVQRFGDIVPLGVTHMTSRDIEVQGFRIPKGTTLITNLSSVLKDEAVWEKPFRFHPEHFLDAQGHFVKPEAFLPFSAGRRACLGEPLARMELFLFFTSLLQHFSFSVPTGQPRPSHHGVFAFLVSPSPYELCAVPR

CYP2D6 [5] = biological target: T1, CYP2D6; conditions: clinical; cited from earlier work
mice = assay: Forced tail suspension test, immobility time; assay type: in vivo; conditions: 15 mg/kg oral (as free base), versus vehicle control
Protocol: The product of Example 11 is tested at MDS Pharma by oral administration to mice (n=8) to determine its effect on total immobility time during forced tail suspension, using essentially the procedure of “Drug Discovery and Evaluation”, Vogel H G and Vogel W H (eds.), p. 304, 1997, Springer-Verlag, New York.

| % Remaining 30 min [1] [%] | % Remaining 60 min [1] [%] | % Remaining 120 min [1] [%] | stability in the microsome assay (in words) ([1]; human liver microsomes, summary of Table 2) | Compound | half-life, poor metabolizers versus extensive metabolizers ([2]; European cohort, low versus higher CYP2D6 activity) | coefficients of variability across Cmax, Cmin and AUC ([2]; steady state, test population) | excreted in the feces as parent compound ([3]; 10-day period) | excreted in the feces, total ([3]; 10-day period) | excreted in the urine as metabolites ([3]; 10-day period) [%] | excreted in the urine as parent compound ([3]; 10-day period) [%] | excreted in the urine, total ([3]; 10-day post-dosing period) | inactivation of CYP2D6 (in words) (CYP2D6 [4]) | reduction in CYP2D6 activity (in words) (CYP2D6 [5]) | total immobility time during forced tail suspension (mice) |
| --- | --- | --- | --- | --- | --- | --- | --- | --- | --- | --- | --- | --- | --- | --- |
| 29 | 26 | 16 |  | Cl.[2H]C1([2H])Oc2ccc(OC[C@@H]3CNCC[C@H]3c3ccc(F)cc3)cc2O1 [A, (3S,4R)-3-((2,2-dideuterobenzo[d][1,3]dioxol-5-yloxy)methyl)-4-(4-fluorophenyl)piperidine hydrochloride] |  |  |  |  |  |  |  |  |  |  |
| 22 | 10 | 6 |  | Cl.[2H]C1([2H])Oc2ccc(OC([2H])([2H])[C@@H]3CNCC[C@H]3c3ccc(F)cc3)cc2O1 [B, (3S,4R)-3-((2,2-dideuterobenzo[d][1,3]dioxol-5-yloxy)dideuteromethyl)-4-(4-fluorophenyl)piperidine hydrochloride] |  |  |  |  |  |  |  |  |  |  |
| 51 | 51 | 44 | relative stability | Fc1ccc([C@@H]2CCNC[C@H]2COc2ccc3c(c2)OCO3)cc1 [Compound 1, (3S,4R)-3-((benzo[d][1,3]dioxol-5-yloxy)methyl)-4-(4-fluorophenyl)piperidine] | approximately 3 fold | 30-70% | less than 1% | About 36% | 62 | 2 | approximately 64% | highly potent, mechanism based inactivator | dose-dependent, highly significant reduction |  |
|  |  |  |  | CC(C)(C)OC(=O)N1CC[C@@H](c2ccc(F)cc2)[C@H](CO)C1 [Example 11, (3S,4R)-tert-butyl 4-(4-fluorophenyl)-3-(hydroxymethyl)piperidine-1-carboxylate] |  |  |  |  |  |  |  |  |  | statistical reduction |
